According to ChEMBL document CHEMBL4311976, “Design, synthesis and biological evaluation of novel 7H-pyrrolo[2,3-d]pyrimidine derivatives as potential FAK inhibitors and anticancer agents” (Eur J Med Chem, 2019):

Legend:
[1] = biological target: Serine/threonine-protein kinase pim-2 (Homo sapiens) (UniProt Q9P1W9); experiment: Inhibition of recombinant full length GST-tagged human PIM2 expressed in baculovirus expression system at 0.5 uM using Ser/Thr 07 as substrate in presence of ATP at Km concentration after 1 hr by Z'-LYTE assay relative to control
Sequence of Serine/threonine-protein kinase pim-2 (Homo sapiens) (Q9P1W9 whole entry, looked up, the tested form may be a part): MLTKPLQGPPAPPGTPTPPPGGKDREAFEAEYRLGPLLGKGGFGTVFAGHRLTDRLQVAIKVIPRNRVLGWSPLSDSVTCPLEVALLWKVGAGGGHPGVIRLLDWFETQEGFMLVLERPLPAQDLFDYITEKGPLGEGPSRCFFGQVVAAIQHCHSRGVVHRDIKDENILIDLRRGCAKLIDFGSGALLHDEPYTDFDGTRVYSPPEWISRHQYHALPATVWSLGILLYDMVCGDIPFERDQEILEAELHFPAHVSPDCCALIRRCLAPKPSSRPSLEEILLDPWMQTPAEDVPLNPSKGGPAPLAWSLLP

[2] = biological target: Mast/stem cell growth factor receptor Kit (Homo sapiens) (UniProt P10721); experiment: Inhibition of recombinant His-tagged human KIT (544 to 976 residues) expressed in baculovirus expression system at 0.5 uM using tyr 06 as substrate in presence of ATP at Km concentration after 1 hr by Z'-LYTE assay relative to control
Sequence of Mast/stem cell growth factor receptor Kit (Homo sapiens) (P10721 whole entry, the tested form may be a part): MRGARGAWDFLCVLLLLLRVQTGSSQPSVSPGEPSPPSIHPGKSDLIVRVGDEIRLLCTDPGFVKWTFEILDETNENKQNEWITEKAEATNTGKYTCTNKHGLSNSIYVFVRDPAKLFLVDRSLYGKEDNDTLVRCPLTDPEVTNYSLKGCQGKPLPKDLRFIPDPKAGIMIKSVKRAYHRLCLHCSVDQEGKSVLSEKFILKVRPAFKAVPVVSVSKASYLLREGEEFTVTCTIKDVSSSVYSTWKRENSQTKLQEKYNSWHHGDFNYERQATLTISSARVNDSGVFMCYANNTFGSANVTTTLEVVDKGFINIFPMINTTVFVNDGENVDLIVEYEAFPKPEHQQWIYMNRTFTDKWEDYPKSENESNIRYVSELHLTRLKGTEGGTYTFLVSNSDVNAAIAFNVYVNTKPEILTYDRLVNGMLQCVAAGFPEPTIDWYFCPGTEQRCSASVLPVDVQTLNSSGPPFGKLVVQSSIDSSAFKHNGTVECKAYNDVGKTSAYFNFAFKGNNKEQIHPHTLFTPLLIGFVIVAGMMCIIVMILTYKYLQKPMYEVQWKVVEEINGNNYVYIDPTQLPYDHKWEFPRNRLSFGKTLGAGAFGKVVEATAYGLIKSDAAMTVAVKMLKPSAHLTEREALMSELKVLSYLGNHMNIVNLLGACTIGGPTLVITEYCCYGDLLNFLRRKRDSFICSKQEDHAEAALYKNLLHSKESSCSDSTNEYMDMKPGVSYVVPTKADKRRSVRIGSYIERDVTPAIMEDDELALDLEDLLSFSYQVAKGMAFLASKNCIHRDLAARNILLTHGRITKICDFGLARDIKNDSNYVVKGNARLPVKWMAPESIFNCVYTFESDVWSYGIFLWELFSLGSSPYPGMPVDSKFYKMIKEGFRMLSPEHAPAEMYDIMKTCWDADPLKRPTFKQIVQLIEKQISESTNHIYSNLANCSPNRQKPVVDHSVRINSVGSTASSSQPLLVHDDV

[3] = biological target: Serine/threonine-protein kinase mTOR (Homo sapiens) (UniProt P42345); experiment: Inhibition of recombinant GST-tagged human mTOR catalytic domain (1360 to 2549 residues) expressed in baculovirus expression system at 0.5 uM using Ser/Thr 11 as substrate in presence of ATP at Km concentration after 1 hr by Z'-LYTE assay relative to control
[4] = biological target: Macrophage colony-stimulating factor 1 receptor (Homo sapiens) (UniProt P07333); experiment: Inhibition of recombinant His-tagged human CSF1R cytoplasmic domain expressed in baculovirus expression system at 0.5 uM using tyr 01 as substrate in presence of ATP at Km concentration after 1 hr by Z'-LYTE assay relative to control
Sequence of Macrophage colony-stimulating factor 1 receptor (Homo sapiens) (P07333 whole entry, the tested form may be a part): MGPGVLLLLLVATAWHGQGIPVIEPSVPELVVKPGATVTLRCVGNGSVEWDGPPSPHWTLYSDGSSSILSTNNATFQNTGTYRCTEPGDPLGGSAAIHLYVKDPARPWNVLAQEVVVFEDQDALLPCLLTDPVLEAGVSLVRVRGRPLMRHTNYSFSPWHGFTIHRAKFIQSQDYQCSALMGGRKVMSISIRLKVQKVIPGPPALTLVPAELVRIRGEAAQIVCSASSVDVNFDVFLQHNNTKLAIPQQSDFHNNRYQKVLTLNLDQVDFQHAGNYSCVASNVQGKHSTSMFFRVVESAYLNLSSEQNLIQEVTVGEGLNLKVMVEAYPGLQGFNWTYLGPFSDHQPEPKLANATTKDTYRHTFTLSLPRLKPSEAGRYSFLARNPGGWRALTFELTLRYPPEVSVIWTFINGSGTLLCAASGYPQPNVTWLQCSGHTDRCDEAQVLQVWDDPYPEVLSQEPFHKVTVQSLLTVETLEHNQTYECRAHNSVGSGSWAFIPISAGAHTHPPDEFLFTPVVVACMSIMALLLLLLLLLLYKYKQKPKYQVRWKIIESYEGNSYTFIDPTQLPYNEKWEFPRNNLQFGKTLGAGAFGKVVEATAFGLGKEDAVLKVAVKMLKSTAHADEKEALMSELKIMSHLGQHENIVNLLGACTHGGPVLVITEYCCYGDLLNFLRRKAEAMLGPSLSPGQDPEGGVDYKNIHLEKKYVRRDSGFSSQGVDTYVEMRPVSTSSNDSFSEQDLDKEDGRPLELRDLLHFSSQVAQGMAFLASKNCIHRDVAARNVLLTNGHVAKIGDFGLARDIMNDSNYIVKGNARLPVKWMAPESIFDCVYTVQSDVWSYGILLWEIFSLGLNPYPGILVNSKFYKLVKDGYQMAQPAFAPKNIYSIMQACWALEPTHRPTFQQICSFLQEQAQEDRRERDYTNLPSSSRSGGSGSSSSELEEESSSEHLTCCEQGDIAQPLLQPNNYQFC

CYP2C19 = CYP2C19 (Homo sapiens, UniProt P33261); experiment: Inhibition of CYP2C19 in human pooled liver microsomes at 10 uM using S-mephenytoin as substrate preincubated for 10 mins followed by NADPH addition and measured after 15 mins by LC/MS/MS analysis relative to control; type: ADME; conditions: probe S-mephenytoin
Sequence of CYP2C19 (P33261 whole entry): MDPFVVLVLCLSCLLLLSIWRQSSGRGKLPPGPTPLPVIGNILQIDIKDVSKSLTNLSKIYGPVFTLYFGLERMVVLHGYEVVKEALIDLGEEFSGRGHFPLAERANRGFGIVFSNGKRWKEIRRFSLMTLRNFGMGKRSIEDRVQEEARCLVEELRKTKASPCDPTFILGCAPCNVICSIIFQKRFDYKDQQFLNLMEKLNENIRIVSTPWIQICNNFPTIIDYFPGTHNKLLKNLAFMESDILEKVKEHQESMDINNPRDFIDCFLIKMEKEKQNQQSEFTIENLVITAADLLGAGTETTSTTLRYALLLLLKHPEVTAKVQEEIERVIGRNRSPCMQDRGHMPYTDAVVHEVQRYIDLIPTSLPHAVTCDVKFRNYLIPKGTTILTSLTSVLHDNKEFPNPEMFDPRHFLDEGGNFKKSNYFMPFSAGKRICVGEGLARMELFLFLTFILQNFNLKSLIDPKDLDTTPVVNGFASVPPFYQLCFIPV

CYP1A2 = CYP1A2 (Homo sapiens, UniProt P05177); experiment: Inhibition of CYP1A2 in human pooled liver microsomes at 10 uM using phenacetin as substrate preincubated for 10 mins followed by NADPH addition and measured after 15 mins by LC/MS/MS analysis relative to control; type: ADME; conditions: probe phenacetin
Sequence of CYP1A2 (P05177 whole entry): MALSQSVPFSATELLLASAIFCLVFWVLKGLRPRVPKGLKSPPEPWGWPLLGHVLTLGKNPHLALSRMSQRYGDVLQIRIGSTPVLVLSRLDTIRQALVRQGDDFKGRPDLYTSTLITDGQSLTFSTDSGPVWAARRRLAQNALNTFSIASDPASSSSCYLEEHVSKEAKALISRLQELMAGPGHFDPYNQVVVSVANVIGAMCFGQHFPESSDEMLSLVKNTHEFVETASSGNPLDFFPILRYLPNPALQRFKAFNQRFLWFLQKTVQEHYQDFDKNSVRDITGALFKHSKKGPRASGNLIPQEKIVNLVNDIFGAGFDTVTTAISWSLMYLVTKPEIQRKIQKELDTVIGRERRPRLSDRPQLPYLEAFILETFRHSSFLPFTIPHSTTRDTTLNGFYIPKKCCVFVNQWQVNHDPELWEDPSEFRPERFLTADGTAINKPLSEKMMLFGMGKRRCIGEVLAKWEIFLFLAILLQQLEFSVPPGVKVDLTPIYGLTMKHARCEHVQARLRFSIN

[5] = Intrinsic clearance in human liver microsomes at 1 uM measured up to 1 hr in presence of NADPH by LC-MS/MS analysis; type: ADME, Microsome; conditions: read-out: CLH
[6] = Metabolic stability in mouse liver microsomes assessed as compound remaining at 1 uM measured up to 1 hr in presence of NADPH by LC-MS/MS analysis; type: ADME, Microsome; conditions: read-out: Stability
A549 = experiment: Induction of apoptosis in human A549 cells assessed as necrotic cells at 9 uM after 72 hrs by Annexin V-FITC/propidium iodide staining-based flow cytometric analysis (reference value: 1.70%); type: functional

SMILES: COc1cc(C(=O)NC2CCNCC2)ccc1Nc1nc(Nc2ccccc2P(C)(C)=O)c2cc[nH]c2n1
- inhibition [1]: -3%
- inhibition [2]: 2%
- inhibition [3]: 0%
- inhibition [4]: 12%
- inhibition at 0.25 h, 10 µM (CYP2C19): 4.9%
- inhibition at 0.25 h, 10 µM (CYP1A2): 1.5%
- microsomal CLint at 1 µM [5]: 12.9 µL/min/mg
- remaining at 1 h, 1 µM [6]: 75.4%
- Activity (A549): 4.15%
